Data reported in US12473270B2, “CB1R receptor blockers with acyclic backbones” (YISSUM RESEARCH DEVELOPMENT COMPANY OF THE HEBREW …, priority 2019, dated 2025).
Read-outs that look alike come from different tables or passages of the source. Each block holds one compound with its values, some of them ahead of it.

How the values were obtained:
[1] = biological target: T1, CB1 receptor (Mus musculus, UniProt P47746); experiment: [3H]CP-55,940 radioligand displacement assay; assay type: binding
T1 construct: crude membranes from mouse brain for CB1 receptor; from tissue; host or cells: mouse brain membranes (crude / P2)
Procedure: Radioligand binding assays. BNS-002 binding to CB1 receptor was assessed in competition displacement assays using [^3H]CP-55,940 as the radioligand and crude membranes from mouse brain for CB1 receptor. All data were in triplicates with Ki values determined from three independent experiments.
Radioligand binding assay. Binding of the tested compounds to CB1 receptor was assessed in competition displacement assays using [3H]CP-55,940 as the radioligand and crude membranes from mouse brain for CB1 receptor. Membranes were extracted according to an established protocol previously described by Catani V. M. and Gasperi V.. Compounds were tested at different concentrations (10-5M-10-11M) and their ability to displace [3H]CP-55,940 was evaluated. Membranes with bound [3H]CP-55,940 were separated and washed from free ligand by vacuum filtration and bound [3H]CP-55,940 radioactivity was measured using a […]. All data were in triplicates with Ki values extracted by nonlinear regression analysis using GraphPad Prism software.

[2] = biological target: T1, CB1 receptor; experiment: [35S]GTPγS binding in mouse brain membranes; assay type: biochemical
Procedure: [^35S]GTPγS binding. Mouse brains were dissected and P2 membranes prepared and resuspended at ˜6 μg protein/μL in 1 ml assay buffer (50 mM Tris HCl, 9 mM MgCl2, 0.2 mM EGTA, 150 mM NaCl; pH 7.4). […] Briefly, membranes (10 μg protein) were incubated in assay buffer containing 100 μM GDP, 0.05 nM [^35S]GTPγS, test compounds at 1 nM-1 μM, and 1.4 mg/mL fatty acid-free BSA in siliconized glass tubes. Bound ligand was separated from free by vacuum filtration. Non-specific binding was determined using 10 μM GTPS. Basal binding was assayed in the absence of the ligand and in the presence of GDP.

[3] = test system: mice; experiment: Centrally-mediated hyperactivity / activity profile; assay type: in vivo, mouse; settings: for activity profile / hyperactivity vs vehicle group: single dose IP: rimonabant 10, TMP 35, EST 40, IDB 20 mg/kg
Procedure: (§1) Locomotor activity. Locomotor activity was quantified by the number of disruptions of infrared XYZ beam arrays with a beam spacing of 0.25 cm in the Promethion High-Definition Behavioral Phenotyping System (Sable Instruments, Inc., Las Vegas, NV, USA).
as §1, with “Centrally-mediated hyperactivity profile. […] Mice were placed in metabolic cages and their activity profile was evaluated.” for “Locomotor activity.”

[4] = test system: mice with diet-induced obesity (DIO); experiment: Body weight, adiposity and food intake in diet-induced obese mice; assay type: in vivo, mouse
Description: Mice. The experimental protocol used was approved by the Institutional Animal Care and Use Committee of the Hebrew University, which is an AAALAC International accredited institute. Male 6 week old C57Bl/6J mice were obtained from Harlan Laboratories. Mice were maintained under a 12-h light/dark cycle and fed ad libitum. To generate diet-induced obesity, C57Bl6/J mice were fed either a high-fat diet (HFD) (60% of calories from fat, 20% from protein, and 20% from carbohydrates; Research Diet, D12492) or a standard laboratory diet (STD, 14% fat, 24% protein, 62% carbohydrates; NIH-31 rodent diet) for 14 weeks.
Age-matched control mice on STD received vehicle daily. Body weight and food intake were monitored daily. Total body fat and lean masses were determined by EchoMRI-100H™ (Echo Medical Systems LLC, Houston, TX, USA). 24 h urine was collected one week before euthanasia using mouse metabolic cages (CCS2000 Chiller System, Hatteras Instruments, NC, USA). At weeks 20 mice were euthanized by a cervical dislocation under anesthesia, the kidneys, brain, liver, fat pads, and muscles were removed and weighed, and samples were either snap-frozen or fixed in buffered 4% formalin Trunk blood was collected for determining the biochemical parameters.

[5] = test system: mice with diet-induced obesity (DIO); experiment: Multi-parameter metabolic assessment (indirect calorimetry) in DIO mice; assay type: in vivo, mouse; settings: for HFD-induced reduction in VO2 / HFD-induced reduction in fat oxidation / HFD-induced reduction in total energy expenditure: DIO mice, 10 mg/kg/d ip
Procedure: Multi-parameter metabolic assessment. Metabolic profile of the mice was assessed by using the Promethion High-Definition Behavioral Phenotyping System (Sable Instruments, Inc., Las Vegas, NV, USA). Data acquisition and instrument control were performed using MetaScreen software version 2.2.18.0, and the obtained raw data were processed using ExpeData version 1.8.4 using an analysis script detailing all aspects of data transformation. Mice with free access to food and water were subjected to a standard 12 h light/12 h dark cycle, which consisted of a 48 h acclimation period followed by 24 h of sampling. Respiratory gases were measured by using the GA-3 gas analyzer (Sable Systems, Inc., Las Vegas, NV, USA) using a pull-mode, negative-pressure system. Air flow was measured and controlled by FR-8 (Sable Systems, Inc., Las Vegas, NV, USA), with a set flow rate of 2000 mL/min. Water vapor was continuously measured and its dilution effect on O2 and CO2 was mathematically compensated. Effective mass was calculated by [body mass]^0.75. Fat oxidation (FO) and carbohydrate oxidation (CHO) were calculated as FO=1.69×VO2−1.69×VCO2 and CHO=4.57×VCO2−3.23×VO2 and expressed as g/d/kg^eff.Mass.

[6] = test system: mice with diet-induced obesity (DIO); experiment: Glycemic control (ipGTT, ipIST, glucose, insulin) in DIO mice; assay type: in vivo, mouse; settings: for HFD-induced glucose intolerance / HFD-induced hyperglycemia: DIO mice, 10 mg/kg/d ip
Procedure: Glucose tolerance (ipGTT) test and insulin sensitivity tests (ipIST). Mice that fasted overnight were injected with glucose (1.5 g/kg, ip), followed by a tail blood collection at 0, 15, 30, 45, 60, 90, and 120 minutes. Blood glucose levels were determined using the Elite glucometer (Bayer, Pittsburgh, PA). On the following day, mice were fasted for 6 h before receiving insulin (0.75 U/kg, i.p.; Eli Lilly, […], USA or Actrapid® vial, novo nordisk A/S, Denmark), and blood glucose levels were determined at the same intervals as above.
(§2) Blood and urine biochemistry. Serum and urine levels of creatinine as well as serum levels of ALT, AST, ALP, HDL, LDL, TG and cholesterol were determined by using the Cobas C-111 chemistry analyzer (Roche, Switzerland). Creatinine clearance was calculated using urine and serum creatinine levels (CCr mL/h=Urine creatinine mg/dL×Urine volume/Serum creatinine mg/dL×24 hrs). Serum insulin levels were measured by an ELISA kit (Crystal Chem, Inc., Downers Grove, IL, USA). Fasting blood glucose was measured using the Elite glucometer (Bayer, Pittsburgh, PA).

[7] = test system: mice with diet-induced obesity (DIO); experiment: HFD-induced hepatic steatosis and liver injury; assay type: in vivo, mouse; settings: for HFD-induced hepatic steatosis (fat vacuoles in the liver): DIO mice, 10 mg/kg/d ip
Procedure: as §2
Histopathological Analyses. 5 μm paraffin-embedded liver sections from 5 animals per group were stained with hematoxylin-eosin staining. Liver images were captured with a Zeiss AxioCam ICc5 color camera mounted on a Zeiss Axio Scope.A1 light microscope and taken from 10 random 40× fields of each animal.

[8] = test system: mice with diet-induced obesity (DIO); experiment: HFD-induced kidney hyperfiltration; assay type: in vivo, mouse
Procedure: as §2

[9] = test system: mice with diet-induced obesity (DIO); experiment: Serum lipids (dyslipidemia) in DIO mice; assay type: in vivo, mouse; settings: 20 mg/kg/day for 20 days
Procedure: as §2

[10] = test system: mice; experiment: Antagonizing cannabinoid (HU-210)-induced hypomotility; assay type: in vivo, mouse; settings: for increase in immobility induced by HU-210: HU-210 30 μg/kg ip, rimonabant 10 mg/kg ip, BNS-002 10, 20 and 50 mg/kg
Procedure: as §1
Antagonizing cannabinoid-induced hypomotility. The ability of the different compounds to inhibit the hypomotility induced by HU210 (cannabinoid agonist) was evaluated. […] A half an hour thereafter, mice received a single dose of HU210 (30 ug/kg, IP) and their locomotor activity was evaluated as described above.

[11] = Tissue levels of antagonists (brain penetrance); assay type: in vivo, mouse; settings: mice, 3 and 10 mg/kg ip, 1 hour
Procedure: Tissue levels of antagonists. […] Blood was collected, and the mice were perfused with phosphate buffered saline for 1 min to remove drug from the intravascular space before removing the brain and liver. Drug levels in tissue homogenates and plasma were determined by using LC-MS/MS.

[12] = [3H]CP-55,940, crude membranes from mouse brain, read-out: Ki for CB1 receptor
[13] = DIO mice, 20 mg/kg/day for 20 days
[14] = mice on high-fat diet, 20 mg/kg/day for 20 days
[15] = 7 days, rimonabant 10 mg/kg/d, BNS-002 30 mg/kg ip

T1 sequence (P47746 whole entry): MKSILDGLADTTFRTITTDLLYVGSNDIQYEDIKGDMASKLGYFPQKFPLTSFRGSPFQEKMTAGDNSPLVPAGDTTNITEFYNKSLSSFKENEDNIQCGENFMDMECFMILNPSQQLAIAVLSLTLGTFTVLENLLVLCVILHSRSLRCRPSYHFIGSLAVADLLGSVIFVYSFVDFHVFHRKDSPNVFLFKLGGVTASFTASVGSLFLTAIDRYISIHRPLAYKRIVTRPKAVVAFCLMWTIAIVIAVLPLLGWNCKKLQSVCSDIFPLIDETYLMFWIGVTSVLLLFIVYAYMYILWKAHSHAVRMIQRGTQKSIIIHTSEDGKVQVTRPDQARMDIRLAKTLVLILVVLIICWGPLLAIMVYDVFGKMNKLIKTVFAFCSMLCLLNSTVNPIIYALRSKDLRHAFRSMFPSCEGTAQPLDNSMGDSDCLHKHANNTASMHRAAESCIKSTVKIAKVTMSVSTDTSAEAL

Structure (SMILES): Cc1c(C(=O)NC2CC(C)(C)N([O])C(C)(C)C2)nn(-c2ccc(Cl)cc2Cl)c1-c1ccc(Cl)cc1 [TMP, 5-(4-chlorophenyl)-1-(2,4-dichlorophenyl)-4-methyl-N-(2,2,6,6-tetramethyl-1-oxo-1-piperidin-4-yl)-1H-pyrazole-3-carboxamide]
- Ki [1]: 1.69 to 446 nM
- activity profile / hyperactivity vs vehicle group [3]: no significant hyperactivity

Structure (SMILES): Cc1c(C(=O)OC2CC(C)(C)N([O])C(C)(C)C2)nn(-c2ccc(Cl)cc2Cl)c1-c1ccc(Cl)cc1 [EST, 2,2,6,6-tetramethyl-1-piperidin-4-yl 5-(4-chlorophenyl)-1-(2,4-dichlorophenyl)-4-methyl-1H-pyrazole-3-carboxylate]
- Ki [1]: 0.37 to 7.81 nM
- activity profile / hyperactivity vs vehicle group [3]: no significant hyperactivity

Continued, in another order:

- Ki ([1]; [3H]CP-55,940, crude membranes from mouse brain, range of Ki values (FIGS. 12-14), read-out: Ki values varying for each substance, ranging from): 1.9 to 135 nM
- Ki [1, 12]: 256 nM
- functional profile by GTPγS binding (inverse agonism) [2]: inverse agonism profile
- activity profile / hyperactivity vs vehicle group [3]: no significant hyperactivity
Structure (SMILES): COC1=C(OC)C(=O)C(CCCCCCCCCCOC(=O)c2nn(-c3ccc(Cl)cc3Cl)c(-c3ccc(Cl)cc3)c2C)=C(C)C1=O [IDB, 10-(4,5-dimethoxy-2-methyl-3,6-dioxocyclohexa-1,4-dien-1-yl)decyl 5-(4-chlorophenyl)-1-(2,4-dichlorophenyl)-4methyl-1H-pyrazole-3-carboxylate]
- body weight [4, 13]: reduced
- daily and total food intake [4, 13]: reduced
- fat mass [4, 13]: reduced
- lean mass [4, 13]: increased
- metabolic parameters (respiratory quotient, VO2, VCO2, total energy expenditure, fat oxidation, carbohydrate oxidation) ([5]; 20 mg/kg/day for 20 days, over a 24 hr period): significant changes
- fasting glucose levels [6, 14]: reduced
- fed glucose levels [6, 14]: reduced
- glucose tolerance [6, 14]: reduced
- glycosuria [6, 14]: increases
- insulin sensitivity [6, 14]: improved
- HFD-induced hepatic steatosis and liver injury ([7]; 20 mg/kg/day for 20 days): reduce
- liver enzymes (AST, ALT, and ALP) ([7]; 20 mg/kg/day for 20 days): reduction
- liver weight ([7]; 20 mg/kg/day for 20 days): decrease
- HFD-induced kidney hyperfiltration ([8]; IDB, compared to the control): no effect
- dyslipidemia in DIO mice [9]: improve
- HDL ([9]; DIO mice): reduce
- HDL-to-LDL ratio ([9]; DIO mice): increase
- LDL ([9]; DIO mice): reduce
- total cholesterol ([9]; DIO mice): reduce
- triglycerides ([9]; DIO mice): reduce

- hypomotility induced by HU210 ([10]; HU210 30 ug/kg IP, rimonabant 10, TMP 35, EST 40, IDB 20 mg/kg IP): significantly blocked
- increase in immobility induced by HU-210 [10]: completely blocked
- activity profile in mice ([3]; rimonabant 10 mg/kg ip, BNS-002 10, 20 and 50 mg/kg ip): marked increase
- activity profile / hyperactivity vs vehicle group [3]: marked increase
Structure (SMILES): Cc1c(C(=O)NN2CCCCC2)nn(-c2ccc(Cl)cc2Cl)c1-c1ccc(Cl)cc1 [rimonabant, reference compound]
- increased adiposity of mice on HFD ([4]; 10 mg/kg/d ip, 28 days): significantly reduced
- overweight of mice on HFD ([4]; 10 mg/kg/d ip, 28 days): significantly reduced
- overweight of mice on HFD [4, 15]: significantly reduced
- total caloric intake ([4]; DIO mice, 10 mg/kg/d ip): ability to reduce
- HFD-induced reduction in VO2 [5]: upregulate
- HFD-induced reduction in fat oxidation [5]: upregulate
- HFD-induced reduction in total energy expenditure [5]: upregulate
- HFD-induced glucose intolerance [6]: completely reversed
- HFD-induced hyperglycemia [6]: completely reversed
- HFD-induced hepatic steatosis (fat vacuoles in the liver) [7]: completely reversed

- Ki [1, 12]: 4.96 nM
- affinity for CB1 receptor (in words) ([1]; radioligand displacement): retains high affinity and selectivity
- functional profile by GTPγS binding (inverse agonism) [2]: inverse agonist
- GTPγS binding in mouse brain membranes ([2]; compound alone): reduces GTPγS binding
- action of the potent CB1 receptor agonist HU-210 on GTPγS binding ([2]; with HU-210): able to ameliorate
- brain levels [11]: reduced
- brain penetrance [11]: markedly reduced
- serum levels [11]: increased
- increase in immobility induced by HU-210 [10]: unaffected
Structure (SMILES): CCCCCCCCCCCCCCCCCCNC(=O)c1nn(-c2ccc(Cl)cc2Cl)c(-c2ccc(Cl)cc2)c1C [BNS-002, 5-(4-chlorophenyl)-1-(2,4-dichlorophenyl)-4-methyl-N-octadecyl-1H-pyrazole-3-carboxamide]
- increased adiposity of mice on HFD ([4]; 10 mg/kg/d ip, 28 days): significantly reduced by rimonabant only
- overweight of mice on HFD ([4]; 10 mg/kg/d ip, 28 days): significantly reduced by rimonabant only
- body weight reduction ([4]; 7 days, BNS-002 15 mg/kg ip): no effect
- overweight of mice on HFD [4, 15]: significantly reduced
- HFD-induced reduction in VO2 [5]: upregulate
- HFD-induced reduction in fat oxidation [5]: upregulate
- HFD-induced reduction in total energy expenditure [5]: upregulate
- HFD-induced glucose intolerance [6]: completely reversed
- HFD-induced hyperglycemia [6]: completely reversed
- HFD-induced hepatic steatosis (fat vacuoles in the liver) [7]: partially
- HFD-induced kidney hyperfiltration ([8]; BNS-002): completely normalized
